# Test results published in US12336991B2, “Factor XIIA inhibitors” (UNIVERSITY OF LEEDS, priority 2018, dated 2025).
# What was measured:
# Format in all cases: biochemical
# FXIIa = biological target: T1, FXIIa (Homo sapiens, UniProt P00748); assay: Determination of Factor XIIa inhibition, chromogenic substrate S-2302 assay; details: human FXIIa alpha
# T1 sequence (P00748 373-615 limits assumed): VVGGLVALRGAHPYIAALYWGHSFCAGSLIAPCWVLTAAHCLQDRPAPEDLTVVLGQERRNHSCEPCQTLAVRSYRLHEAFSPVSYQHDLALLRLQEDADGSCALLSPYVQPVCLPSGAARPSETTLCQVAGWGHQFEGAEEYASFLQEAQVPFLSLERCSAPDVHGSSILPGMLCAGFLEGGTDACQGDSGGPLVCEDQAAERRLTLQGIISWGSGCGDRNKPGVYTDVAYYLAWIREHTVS
# T1 sequence (P00748 20-372 partner limits assumed): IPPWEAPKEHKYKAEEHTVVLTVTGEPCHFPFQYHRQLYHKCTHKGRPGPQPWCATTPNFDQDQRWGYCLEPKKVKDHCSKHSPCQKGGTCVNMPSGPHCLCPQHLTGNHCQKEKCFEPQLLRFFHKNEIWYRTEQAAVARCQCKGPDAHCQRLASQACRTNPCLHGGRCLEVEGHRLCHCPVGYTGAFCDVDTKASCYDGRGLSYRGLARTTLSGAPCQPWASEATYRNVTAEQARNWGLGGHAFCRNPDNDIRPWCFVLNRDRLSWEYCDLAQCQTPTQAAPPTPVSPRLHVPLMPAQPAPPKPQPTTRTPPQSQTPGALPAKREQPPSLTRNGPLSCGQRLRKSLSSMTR
# How it was run: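 FXIIa (10 nM) preincubated with compound 10 min at 37° C. in 50 mM Tris, 137 mM NaCl pH 7.4, 5% DMSO, top concentration 500 μM, then S-2302 added ([…]). Absorbance at 405 nm read kinetically for 3 h; IC50 from initial rates, converted to Ki by Cheng-Prusoff.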
# thrombin = biological target: T2, thrombin (Homo sapiens, UniProt P00734); assay: Determination of selectivity: thrombin inhibition, chromogenic substrate GPR assay; details: fold selectivity for FXIIa over thrombin
# T2 construct: FXa (5 nM) and thrombin (5 nM)
# How it was run: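 Thrombin (5 nM) preincubated with compound 10 min at 37 °C in 50 mM Tris, 137 mM NaCl, pH 7.4, 5% DMSO, then GPR substrate ([…]) added. Absorbance at 405 nm read kinetically for 3 h; IC50 from initial rates, converted to Ki via Ki=IC50/(1+[S]/Km).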
# FXa = FXa (Homo sapiens, UniProt P00742); assay: Determination of selectivity: FXa inhibition, chromogenic substrate S2765 assay; details: fold selectivity for FXIIa over FXa
# How it was run: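 Human FXa (5 nM) preincubated with compound (top 500 μM, 5% DMSO) 10 min at 37 °C in 50 mM Tris, 137 mM NaCl pH 7.4, then S2765 ([…]) added; A405 kinetics over 3 h at 37 °C. IC50 from initial rates, converted to Ki via Cheng-Prusoff.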
# Chain of FXa (P00742 235-488 limits assumed): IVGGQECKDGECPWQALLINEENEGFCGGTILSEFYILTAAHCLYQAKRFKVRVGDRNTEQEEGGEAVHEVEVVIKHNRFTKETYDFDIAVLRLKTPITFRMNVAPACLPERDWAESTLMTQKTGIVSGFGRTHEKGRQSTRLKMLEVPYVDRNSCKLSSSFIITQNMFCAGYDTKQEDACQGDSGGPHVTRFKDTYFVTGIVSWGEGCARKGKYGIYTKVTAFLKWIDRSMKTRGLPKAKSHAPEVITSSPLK
# Chain of FXa (P00742 41-179 partner limits assumed): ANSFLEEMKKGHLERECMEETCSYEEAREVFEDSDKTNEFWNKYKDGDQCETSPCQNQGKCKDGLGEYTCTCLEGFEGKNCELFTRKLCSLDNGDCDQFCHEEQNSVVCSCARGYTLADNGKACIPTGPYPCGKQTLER
Ki (FXIIa),FXa (human)/FXIIa alpha (human) (FXa),SMILES,Thrombin (human)/FXIIa alpha (human) (thrombin)
> 2000 nM,∘∘,COc1ccc(C[C@@H]2C[C@@H](C(=O)NCc3ccc4c(c3)nnn4C)N(C(=O)[C@H]3CC(c4cncn4C)CN3)C2)cc1 (stereo partly drawn) [Example M05446],++ (fold selectivity value of 10 to 100)
< 200 nM,∘∘∘,COc1ccc(C[C@@H]2C[C@@H](C(=O)NCc3ccc4c(Cl)nn(C)c4c3)N(C(=O)[C@H](N)CCC(=O)N3CCCC3)C2)cc1 [Example M05449],+++ (fold selectivity values greater than 100)
< 200 nM,∘∘∘,COc1ccc(C[C@@H]2C[C@@H](C(=O)NCc3ccc4c(c3)nnn4C)N(C(=O)[C@H](N)CCC(=O)N3CCNC(=O)C3)C2)cc1 [Example M05451],+++ (fold selectivity values greater than 100)
> 2000 nM,∘∘,COc1ccc(C[C@@H]2C[C@@H](C(=O)NCc3ccc4c(c3)nnn4C)N(C(=O)[C@H]3CC(c4cn[nH]c4)CN3)C2)cc1 (stereo partly drawn) [Example M05454],++ (fold selectivity value of 10 to 100)
< 200 nM,∘∘∘,COc1ccc(C[C@@H]2C[C@@H](C(=O)NCc3ccc4c(c3)nnn4C)N(C(=O)[C@H](N)CCC(=O)N3CCC[C@@H]3C#N)C2)cc1 [Example M05458],+++ (fold selectivity values greater than 100)
200 to 2000 nM,∘∘∘,COc1ccc2c(c1)CCNC2C(=O)N1C[C@H](Cc2ccncc2)C[C@H]1C(=O)NCc1ccc2c(c1)nnn2C (stereo partly drawn) [Example M05462],+++ (fold selectivity values greater than 100)
> 2000 nM,∘∘,COc1ccc(C[C@@H]2C[C@@H](C(=O)NCc3ccc4c(c3)nnn4C)N(C(=O)[C@H]3CC(c4c[nH]cn4)CN3)C2)cc1 (stereo partly drawn) [Example M05464],++ (fold selectivity value of 10 to 100)
200 to 2000 nM,∘∘∘,COc1ccc(C[C@@H]2C[C@@H](C(=O)NCc3cc4ccncc4o3)N(C(=O)[C@H](N)CCC(=O)N3CCCC3)C2)cc1 [Example M05465],+++ (fold selectivity values greater than 100)
< 200 nM,∘∘∘,COc1ccc(C[C@@H]2C[C@@H](C(=O)NCc3ccc4c(c3)nnn4C)N(C(=O)C3NCCc4cc(Br)ccc43)C2)cc1 (stereo partly drawn) [Example M05470],+++ (fold selectivity values greater than 100)
> 2000 nM,∘∘,COc1ccc(C[C@@H]2C[C@@H](C(=O)NCc3ccc4c(c3)nnn4C)N(C(=O)C3NCCc4cc(Br)ccc43)C2)cc1 (stereo partly drawn) [Example M05471],++ (fold selectivity value of 10 to 100)
< 200 nM,∘∘∘,COc1ccc(C[C@@H]2C[C@@H](C(=O)NCc3ccc4c(c3)nnn4C)N(C(=O)[C@H]3C[C@@H](C(=O)N4CCCC4)CCN3)C2)cc1 [Example M05490],+++ (fold selectivity values greater than 100)

# The remaining lines, values behind:
SMILES,Ki (FXIIa),FXa (human)/FXIIa alpha (human) (FXa),Thrombin (human)/FXIIa alpha (human) (thrombin)
COc1ccc(C[C@@H]2C[C@@H](C(=O)NCc3ccc4c(c3)c(C)nn4C)N(C(=O)[C@H](N)CCC(=O)N3CCCC3)C2)cc1 [Example M05447],200 to 2000 nM,∘∘∘,+++ (fold selectivity values greater than 100)
COc1ccc(C[C@@H]2C[C@@H](C(=O)NCc3ccc4c(C)nn(C)c4c3)N(C(=O)[C@H](N)CCC(=O)N3CCCC3)C2)cc1 [Example M05448],200 to 2000 nM,∘∘∘,+++ (fold selectivity values greater than 100)
COc1ccc(C[C@@H]2C[C@@H](C(=O)NCc3ccc4c(c3)nnn4C)N(C(=O)[C@H](N)CCC(=O)N3CCCC3(C)C)C2)cc1 [Example M05450],< 200 nM,∘∘∘,+++ (fold selectivity values greater than 100)
COc1ccc(C[C@@H]2C[C@@H](C(=O)NCc3ccc4c(c3)nnn4C)N(C(=O)[C@H](N)CCc3ccccn3)C2)cc1 [Example M05453],< 200 nM,∘∘∘,+++ (fold selectivity values greater than 100)
COc1ccc(C[C@@H]2C[C@@H](C(=O)NCc3ccc4c(c3)nnn4C)N(C(=O)[C@H]3CC(c4cnccn4)CN3)C2)cc1 (stereo partly drawn) [Example M05459],200 to 2000 nM,∘∘∘,+++ (fold selectivity values greater than 100)
COc1ccc(C[C@@H]2C[C@@H](C(=O)NCc3ccc4c(c3)nnn4C)N(C(=O)[C@H](N)CCC(=O)N3C4CCC3C(=O)NC4)C2)cc1 (stereo partly drawn) [Example M05460],200 to 2000 nM,∘∘∘,+++ (fold selectivity values greater than 100)
COc1ccc(C[C@@H]2C[C@@H](C(=O)NCc3ccc4c(c3)nnn4C)N(C(=O)[C@H](N)CCC(=O)N3CCCNCC3)C2)cc1 [Example M05461],< 200 nM,∘∘∘,+++ (fold selectivity values greater than 100)
COc1ccc2c(c1)CCNC2C(=O)N1C[C@H](Cc2ccncc2)C[C@H]1C(=O)NCc1ccc2c(c1)nnn2C (stereo partly drawn) [Example M05463],> 2000 nM,∘∘,++ (fold selectivity value of 10 to 100)
"COc1ccc(C[C@@H]2C[C@@H](C(=O)NCc3ccc4c(c3)nnn4C)N(C(=O)[C@H]3C[C@@H](c4cnn(C)c4)CN3C)C2)cc1 [Example M05474, (2S,4R)-4-(4-Methoxy-benzyl)-1-[(2R,4S)-1-methyl-4-(1-methyl-1H-pyrazol-4-yl)-pyrrolidine-2-carbonyl]-pyrrolidine-2-carboxylic acid (1-methyl-1H-benzotriazol-5-ylmethyl)-amide]",200 to 2000 nM,∘∘∘,+++ (fold selectivity values greater than 100)
